Experimental data: patent US20230077362A1 (CORTEVA AGRISCIENCE LLC, priority 2019, published 2023)
Where two headings read alike, the source gives them in different places.

How the values were obtained:
[1] = test system: Cabbage Looper (Trichoplusia ni) ("CL"), second instar larvae; assay: Bioassay on cabbage looper (CL), 128-well diet tray assay; type: in vivo; settings: for pest or weed control at 50 µg/cm2: Trichoplusia ni; for CL rating: Table ABC, species CL, C = not tested, D = no activity noticed
How it was run: (§1)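 Sealed trays, 25° C., 14:10 light:dark, 5–7 d. Per-well % mortality recorded, mean of eight wells reported.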

[2] = test system: Beet Armyworm (Spodoptera exigua) ("BAW"), second instar larvae; assay: Bioassay on beet armyworm (BAW), 128-well diet tray assay; type: in vivo; settings: for pest or weed control at 50 µg/cm2: Spodoptera exigua; for BAW rating: Table ABC, species BAW, C = not tested, D = no activity noticed
How it was run: as §1

[3] = read-out: CL (Biological Results, rating)
[4] = read-out: BAW (Biological Results, rating)

Cc1ccc(-c2ccco2)c(N2C(=O)CS/C2=N\C(=O)Nc2ccc(-c3ncn(-c4ccc(OC(F)(F)F)cc4)n3)cc2C)c1 [Compound J488, (Z)-1-(3-(2-(Furan-2-yl)-5-methylphenyl)-4-oxothiazolidin-2-ylidene)-3-(2-methyl-4-(1-(4-(trifluoromethoxy)phenyl)-1H-1,2,4-triazol-3-yl)phenyl)urea]
pest or weed control at 50 µg/cm2 ([1]; read-out: CL rating): 50 to 100%
pest or weed control at 50 µg/cm2 ([2]; read-out: BAW rating): 50 to 100%

Cc1ccc(COCC(F)(F)F)c(N2C(=O)CS/C2=N\C(=O)Nc2ccc(-c3ncn(-c4ccc(C(F)(F)F)cc4)n3)cc2C)c1 [Compound J167, (Z)-1-(3-(5-Methyl-2-((2,2,2-trifluoroethoxy)methyl)phenyl)-4-oxothiazolidin-2-ylidene)-3-(2-methyl-4-(1-(4-(trifluoromethyl)phenyl)-1H-1,2,4-triazol-3-yl)phenyl)urea]
pest or weed control at 50 µg/cm2 [1, 3]: 50 to 100%
pest or weed control at 50 µg/cm2 [2, 4]: 50 to 100%

Cc1ccc(C(F)(F)F)c(N2C(=O)CS/C2=N\C(=O)Nc2ccc(-c3ncn(-c4ccc(OC(F)(F)F)cc4)n3)cc2C#N)c1 [Compound J244, (Z)-1-(2-Cyano-4-(1-(4-(trifluoromethoxy)phenyl)-1H-1,2,4-triazol-3-yl)phenyl)-3-(3-(5-methyl-2-(trifluoromethyl)phenyl)-4-oxothiazolidin-2-ylidene)urea]
pest or weed control at 50 µg/cm2 [1, 3]: 50 to 100%
pest or weed control at 50 µg/cm2 [2, 4]: 50 to 100%

CC(C)c1ccc(N(C)C)cc1N1C(=O)CS/C1=N\C(=O)Nc1ccc(-c2ncn(-c3ccc(C#N)cc3)n2)cc1F [Compound J290, (Z)-1-(4-(1-(4-Cyanophenyl)-1H-1,2,4-triazol-3-yl)-2-fluorophenyl)-3-(3-(5-(dimethylamino)-2-isopropylphenyl)-4-oxothiazolidin-2-ylidene)urea]
pest or weed control at 50 µg/cm2 [1, 3]: 50 to 100%
pest or weed control at 50 µg/cm2 [2, 4]: 50 to 100%

Cc1ccc(C(C)C)c(N2C(=O)CS/C2=N\C(=O)Nc2ccc(-c3ncn(-c4ccc(OC(F)(F)F)cc4)n3)cc2C(F)(F)F)c1 [Compound J114, (Z)-1-(3-(2-Isopropyl-5-methylphenyl)-4-oxothiazolidin-2-ylidene)-3-(4-(1-(4-(trifluoromethoxy)phenyl)-1H-1,2,4-triazol-3-yl)-2-(trifluoromethyl)phenyl)urea]
pest or weed control at 50 µg/cm2 [1, 3]: 50 to 100%
pest or weed control at 50 µg/cm2 [2, 4]: 50 to 100%

Cc1ccc(C(C)C)c(N2C(=O)CS/C2=N\C(=O)Nc2ncc(-c3ncn(-c4ccc(C(F)(F)F)cc4)n3)cc2C)c1 [Compound J664, (Z)-1-(3-(2-isopropyl-5-methylphenyl)-4-oxothiazolidin-2-ylidene)-3-(3-methyl-5-(1-(4-(trifluoromethyl)phenyl)-1H-1,2,4-triazol-3-yl)pyridin-2-yl)urea]
pest or weed control at 50 µg/cm2 ([1]; read-out: CL rating): 50 to 100%
pest or weed control at 50 µg/cm2 ([2]; read-out: BAW rating): 50 to 100%

COCc1ccc(N(C)C)cc1N1C(=O)CS/C1=N\C(=O)Nc1ccc(-c2cn(-c3ccc(S(F)(F)(F)(F)F)cc3)cn2)cc1F [Compound J601, (Z)-1-(3-(5-(Dimethylamino)-2-(methoxymethyl)phenyl)-4-oxothiazolidin-2-ylidene)-3-(2-fluoro-4-(1-(4-(pentafluoro-λ^6-sulfaneyl)phenyl)-1H-imidazol-4-yl)phenyl)urea]
pest or weed control at 50 µg/cm2 ([1]; read-out: CL rating): 50 to 100%
pest or weed control at 50 µg/cm2 ([2]; read-out: BAW rating): 50 to 100%

Cc1cc(-c2cn(-c3ccc(S(F)(F)(F)(F)F)cc3)cn2)ccc1NC(=O)/N=C1\SCC(=O)N1c1cc(N(C)C)ccc1C(C)C [Compound J618, (Z)-1-(3-(5-(Dimethylamino)-2-isopropylphenyl)-4-oxothiazolidin-2-ylidene)-3-(2-methyl-4-(1-(4-(pentafluoro-λ^6-sulfaneyl)phenyl)-1H-imidazol-4-yl)phenyl)urea]
pest or weed control at 50 µg/cm2 ([1]; read-out: CL rating): 50 to 100%
pest or weed control at 50 µg/cm2 ([2]; read-out: BAW rating): 50 to 100%

CCCNc1ccc(C(C)C)c(N2C(=O)CS/C2=N\C(=O)Nc2ccc(-c3ncn(-c4ccc(OC(F)(F)F)cc4)n3)cc2F)c1 [Compound J107, (Z)-1-(2-Fluoro-4-(1-(4-(trifluoromethoxy)phenyl)-1H-1,2,4-triazol-3-yl)phenyl)-3-(3-(2-isopropyl-5-(propylamino)phenyl)-4-oxothiazolidin-2-ylidene)urea]
pest or weed control at 50 µg/cm2 [1, 3]: 50 to 100%
pest or weed control at 50 µg/cm2 [2, 4]: 50 to 100%

COC(C)c1ccc(C)cc1N1C(=O)CS/C1=N\C(=O)Nc1ccc(-c2ncn(-c3ccc(C(F)(F)F)cn3)n2)cc1Cl (centres unmarked) [Compound J306, (Z)-1-(2-Chloro-4-(1-(5-(trifluoromethyl)pyridin-2-yl)-1H-1,2,4-triazol-3-yl)phenyl)-3-(3-(2-(1-methoxyethyl)-5-methylphenyl)-4-oxothiazolidin-2-ylidene)urea]
pest or weed control at 50 µg/cm2 [1, 3]: 50 to 100%
pest or weed control at 50 µg/cm2 [2, 4]: 50 to 100%

CCc1ccc(COCC(F)(F)F)c(N2C(=O)CS/C2=N\C(=O)Nc2ccc(-c3ncn(-c4ccc(C(F)(F)F)cc4)n3)cc2F)c1 [Compound J642]
CL rating [1]: A (50-100)
BAW rating [2]: A (50-100)

Cc1ccc(COCC(F)F)c(N2C(=O)CS/C2=N\C(=O)Nc2ccc(-c3ncn(-c4ccc(OC(F)(F)F)cc4)n3)cc2F)c1 [Compound J401]
pest or weed control at 50 µg/cm2 ([1]; read-out: CL rating): 50 to 100%
pest or weed control at 50 µg/cm2 ([2]; read-out: BAW rating): 50 to 100%

COc1cc(-c2ncn(-c3ccc(OC(F)(F)F)cc3)n2)ccc1NC(=O)/N=C1\SCC(=O)N1c1cc(C)ccc1C(C)OC (centres unmarked) [Compound J90, (Z)-1-(2-Methoxy-4-(1-(4-(trifluoromethoxy)phenyl)-1H-1,2,4-triazol-3-yl)phenyl)-3-(3-(2-(1-methoxyethyl)-5-methylphenyl)-4-oxothiazolidin-2-ylidene)urea]
pest or weed control at 50 µg/cm2 [1, 3]: 50 to 100%
pest or weed control at 50 µg/cm2 [2, 4]: 50 to 100%

COC(C)c1ccc(C)cc1N1C(=O)CS/C1=N\C(=O)Nc1ccc(-c2ncn(-c3ccc(S(=O)(=O)C(F)(F)F)cc3)n2)cc1F (centres unmarked) [Compound J361, (Z)-1-(2-Fluoro-4-(1-(4-((trifluoromethyl)sulfonyl)phenyl)-1H-1,2,4-triazol-3-yl)phenyl)-3-(3-(2-(1-methoxyethyl)-5-methylphenyl)-4-oxothiazolidin-2-ylidene)urea]
pest or weed control at 50 µg/cm2 ([1]; read-out: CL rating): 50 to 100%
pest or weed control at 50 µg/cm2 ([2]; read-out: BAW rating): 50 to 100%

COC(C)c1ccc(C)cc1N1C(=O)CS/C1=N\C(=O)Nc1ccc(-c2ncn(-c3ccc(C(F)(F)F)cn3)n2)cc1C(F)(F)F (centres unmarked) [Compound J303, (Z)-1-(3-(2-(1-Methoxyethyl)-5-methylphenyl)-4-oxothiazolidin-2-ylidene)-3-(2-(trifluoromethyl)-4-(1-(5-(trifluoromethyl)pyridin-2-yl)-1H-1,2,4-triazol-3-yl)phenyl)urea]
pest or weed control at 50 µg/cm2 [1, 3]: 50 to 100%
pest or weed control at 50 µg/cm2 [2, 4]: 50 to 100%

CC(C)c1ccc(N(C)C)cc1N1C(=O)CS/C1=N\C(=O)Nc1ccc(-c2ncn(-c3ccc(S(=O)(=O)C(F)(F)F)cc3)n2)cc1C#N [Compound J414, (Z)-1-(2-Cyano-4-(1-(4-((trifluoromethyl)sulfonyl)phenyl)-1H-1,2,4-triazol-3-yl)phenyl)-3-(3-(5-(dimethylamino)-2-isopropylphenyl)-4-oxothiazolidin-2-ylidene)urea]
pest or weed control at 50 µg/cm2 ([1]; read-out: CL rating): 50 to 100%
pest or weed control at 50 µg/cm2 ([2]; read-out: BAW rating): 50 to 100%

COc1ccc(C(C)C)c(N2C(=O)CS/C2=N\C(=O)Nc2ccc(-c3ncn(-c4ccc(OC(F)(F)F)cc4)n3)cc2C#N)c1 [Compound J246, (Z)-1-(2-Cyano-4-(1-(4-(trifluoromethoxy)phenyl)-1H-1,2,4-triazol-3-yl)phenyl)-3-(3-(2-isopropyl-5-methoxyphenyl)-4-oxothiazolidin-2-ylidene)urea]
pest or weed control at 50 µg/cm2 [1, 3]: 50 to 100%
pest or weed control at 50 µg/cm2 [2, 4]: 50 to 100%

CCCc1ccc(N(C)C)cc1N1C(=O)CS/C1=N\C(=O)Nc1ccc(-c2ncn(-c3ccc(S(=O)(=O)C(F)(F)F)cc3)n2)cc1F [Compound J370, (Z)-1-(3-(5-(Dimethylamino)-2-propylphenyl)-4-oxothiazolidin-2-ylidene)-3-(2-fluoro-4-(1-(4-((trifluoromethyl)sulfonyl)phenyl)-1H-1,2,4-triazol-3-yl)phenyl)urea]
pest or weed control at 50 µg/cm2 ([1]; read-out: CL rating): 50 to 100%
pest or weed control at 50 µg/cm2 ([2]; read-out: BAW rating): 50 to 100%

CCCc1ccc(C)cc1N1C(=O)CS/C1=N\C(=O)Nc1ccc(-c2ncn(-c3ccc(N(C(=O)OC)C(F)(F)F)cc3)n2)cc1C [Compound J784]
CL rating [1]: A (50-100)
BAW rating [2]: A (50-100)

CC(C)c1ccc(N(C)C)cc1N1C(=O)CS/C1=N\C(=O)Nc1ccc(-c2ncn(-c3ccc(OC(F)(F)F)cc3)n2)cc1Br [Compound J219, (Z)-1-(2-Bromo-4-(1-(4-(trifluoromethoxy)phenyl)-1H-1,2,4-triazol-3-yl)phenyl)-3-(3-(5-(dimethylamino)-2-isopropylphenyl)-4-oxothiazolidin-2-ylidene)urea]
pest or weed control at 50 µg/cm2 [1, 3]: 50 to 100%
pest or weed control at 50 µg/cm2 [2, 4]: 50 to 100%

Cc1ccc(OCCC(F)(F)F)c(N2C(=O)CS/C2=N\C(=O)Nc2ccc(-c3cn(-c4ccc(S(F)(F)(F)(F)F)cc4)cn3)cc2F)c1 [Compound J597, (Z)-1-(2-Fluoro-4-(1-(4-(pentafluoro-λ^6-sulfaneyl)phenyl)-1H-imidazol-4-yl)phenyl)-3-(3-(5-methyl-2-(3,3,3-trifluoropropoxy)phenyl)-4-oxothiazolidin-2-ylidene)urea]
pest or weed control at 50 µg/cm2 ([1]; read-out: CL rating): 50 to 100%
pest or weed control at 50 µg/cm2 ([2]; read-out: BAW rating): 50 to 100%

COC(C)c1ccc(C)cc1N1C(=O)CS/C1=N\C(=O)Nc1ccc(-c2ncn(-c3ccc(OC(F)(F)F)cc3)n2)cc1C#N (centres unmarked) [Compound J228, (Z)-1-(2-Cyano-4-(1-(4-(trifluoromethoxy)phenyl)-1H-1,2,4-triazol-3-yl)phenyl)-3-(3-(2-(1-methoxyethyl)-5-methylphenyl)-4-oxothiazolidin-2-ylidene)urea]
pest or weed control at 50 µg/cm2 [1, 3]: 50 to 100%
pest or weed control at 50 µg/cm2 [2, 4]: 50 to 100%
